From patent US20080200473A1, “Imidazo [1,2-a]Pyridine Compounds, Compositions, Uses and Methods Thereto” (Ferrer Internacional, S.A., priority 2004, published 2008)

Key:
[1] = system: α2-GABAA receptor; experiment: Ligand-binding assay, competitive with radiolabeled flumazenil, spinal cord membranes; conditions: Affinity for α2-GABAA receptor, rat spinal cord membranes, radiolabeled flumazenil 1 nM; for % Inhibition 10^−5M: 10^-5M test compound; for % Inhibition 10^−7M: 10^-7M test compound
Protocol: (§1) Ligand-binding assays. Determination of the affinity of test compounds for α1- and α2-GABAA receptor.
(§2) Male Sprague-Dawley rats weighing 200-250 g at the time of experiment were used. After decapitation of the animal, the cerebellum (tissue that mostly contains α1-GABAA receptor) and spinal cord (tissue that mostly contains α2-GABAA receptor) were removed. The membranes were prepared according to the method by J. Lameh et al. (Prog. Neuro-Psychopharmacol. Biol. Psychiatry, 24, 979-991, 2000) and H. Noguchi et al. (Eur. J. Pharm., 434, 21-28, 2002). Once the tissues weighed, they were suspended in 50 mM Tris.HCl (pH 7.4), 1:40 (w/v), or sucrose 0.32 M in the case of spinal cord, homogenized and then centrifuged at 20,000 g for 10 min at 7° C. twice. The resulting pellet was resuspended under the same conditions and centrifuged again. The pellet was finally resuspended on a minimum volume and kept at −80° C. overnight. On the next day, the process was repeated until the final pellet was resuspended at a ratio of 1:10 (w/v) in the case of cerebellum and at a ratio of 1:5 (w/v) in the case of spinal cord.
(§3) Affinity was determined by competitive tests using radiolabeled flumazenil as ligand. The tests were performed according to the methods described by S. Arbilla et al. (Eur. J. Pharmacol., 130, 257-263, 1986); and Y. Wu et al. (Eur. J. Pharmacol., 278, 125-132, 1995) using 96-well microtiter plates. The membranes containing the study receptors, flumazenil (radiolabeling at a final concentration of 1 nM) and ascending concentrations of test compounds (in a total volume of 230 μL in 50 mM [ph 7.4] Tris.HCl buffer) were incubated. Simultaneously, the membranes were only incubated with the radiolabeled flumazenil (total binding, 100%) and in the presence of an elevated concentration of unradiolabeled flumazenil (non-specific binding, % estimation of radiolabeled ligand). The reactions started on adding the radiolabeled ligand followed by incubation for 60 minutes at 4° C. At the end of the incubation period, 200 μL of reaction were transferred to a multiscreen plate (Millipore) and filtered using a vacuum manifold and then washed three times with cold test buffer. The multiscreen plates were equipped with a GF/B filter that retained the membranes containing the receptors and the radiolabeled ligand which has been bound to the receptors. After washing, the plates were left till dry. Once dried, scintillation liquid was added and left under stirring overnight. The next day the plates were counted using a Perkin-Elmer Microbeta scintillation counter.
(§4) For analysis of the results the percentage of specific binding for every concentration of test compound was calculated as follows:
(§5) % specific binding=(X−N/T−N)×100
(§6) where, X: amount of bound ligand for every concentration of compound. T: total binding, maximum amount bound to the radiolabeled ligand. N: non-specific binding, amount of radiolabeled ligand bound in a non-specific way irrespective of the receptor used.
(§7) Every concentrations of compound were tested in triplicate and their mean values were used to determine the experimental values of % specific binding versus the concentration of compound. Affinity data are expressed as % inhibition at 10^-5M and 10^-7M concentrations.

[2] = system: α1-GABAA receptor; experiment: Ligand-binding assay, competitive with radiolabeled flumazenil, cerebellum membranes; conditions: Affinity for α1-GABAA receptor, rat cerebellum membranes, radiolabeled flumazenil 1 nM; for % Inhibition 10^−5M: 10^-5M test compound; for % Inhibition 10^−7M: 10^-7M test compound
Protocol: as §1, §2, §3, §4, §5, §6, §7

[3] = system: mice; experiment: In vivo predictive sedation-hypnosis test (inhibition of traveled distance); design: species or system mouse; conditions: male CD1 mice; single equimolecular intraperitoneal doses; traveled distance over 30 min after dosing (first 5 min discarded) versus control
Protocol: In vivo determination of predictive sedative-hypnotic action.
The in vivo effects of these compounds were assessed by a predictive sedation-hypnosis test in mice (D. J. Sanger et al., Eur. J. Pharmacol., 313, 35-42, 1996; and G. Griebel et al., Psychopharmacology, 146, 205-213, 1999).
Groups of 5-8 male CD1 mice, weighing 22-26 g at the time of test, were used. The test compounds were administered in single equimolecular intraperitoneal doses, suspended in 0.25% agar with one drop of Tween in a volume of 10 mL/kg. Control animals received the vehicle alone. Using a Smart System (Panlab, S. L., Spain) the traveled distance in cm is recorded for each mouse at 5-min intervals during a period of 30 minutes after dosing. The inhibition percentage of traveled distance of treated animals versus control animals (the first 5 min were discarded) was calculated.

Structure (SMILES)	% Inhibition 10^−5M [1] [%]	% Inhibition 10^−7M [1] [%]	% Inhibition 10^−5M [2] [%]	% Inhibition 10^−7M [2] [%]	% Inhibition Motor Activity [3] [%]
Cc1ccc(-c2nc3ccc(C)cn3c2CNC(=O)c2ccc(N(C)C)cc2)cc1 [Example 3, 4-Dimethylamino-N-(6-methyl-2-p-tolyl-imidazo[1,2-a]pyridin-3-ylmethyl)-benzamide]	17.4	0.0	73.9	21.4	45.59
Cc1ccc(-c2nc3ccc(C)cn3c2CNC(=O)c2ccco2)cc1 [Example 4, Furan-2-carboxylic acid (6-methyl-2-p-tolyl-imidazo[1,2-a]pyridin-3-ylmethyl)-amide]	82.9	0.0	97.4	19.4	73.28
Cc1ccc(-c2nc3ccc(C)cn3c2CNC(=O)c2ccccn2)cc1 [Example 5, Pyridine-2-carboxylic acid (6-methyl-2-p-tolyl-imidazo[1,2-a]pyridin-3-ylmethyl)-amide]	95.3	28.4	99.8	75.5	90.40
Cc1ccc(-c2nc3ccc(C)cn3c2CNC(=O)c2ccc(C)n2C)cc1 [Example 6, 1,5-Dimethyl-1H-pyrrole-2-carboxylic acid (6-methyl-2-p-tolyl-imidazo[1,2-a]pyridin-3-ylmethyl)-amide]	64.4	0.0	96.1	22.5	78.09
Cc1ccc(-c2nc3ccc(C)cn3c2CNC(=O)c2ccncc2)cc1 [Example 7, N-(6-Methyl-2-p-tolyl-imidazo[1,2-a]pyridin-3-ylmethyl)-isonicotinamide]	81.3	0.0	98.0	36.5	72.45
COc1ccc(C(=O)NCc2c(-c3ccc(C)cc3)nc3ccc(C)cn23)cc1 [Example 11, 4-Methoxy-N-(6-methyl-2-p-tolyl-imidazo[1,2-a]pyridin-3-ylmethyl)-benzamide]	6.5	0.0	70.7	29.0	55.43
CC(=O)c1ccc(C(=O)NCc2c(-c3ccc(C)cc3)nc3ccc(C)cn23)cc1 [Example 12, 4-Acetyl-N-(6-methyl-2-p-tolyl-imidazo[1,2-a]pyridin-3-ylmethyl)-benzamide]	19.0	0.0	73.7	18.6	56.84
Cc1ccc(-c2nc3ccc(C)cn3c2CNC(=O)C2CC2)cc1 [Example 13, Cyclopropanecarboxylic acid (6-methyl-2-p-tolyl-imidazo[1,2-a]pyridin-3-ylmethyl)-amide]	67.8	0.0	97.6	53.8	90.36
Cc1ccc(-c2nc3ccc(C)cn3c2CNC(=O)c2ccc([N+](=O)[O-])o2)cc1 [Example 14, 5-Nitro-furan-2-carboxylic acid (6-methyl-2-p-tolyl-imidazo[1,2-a]pyridin-3-ylmethyl)-amide]	92.2	26.2	99.4	51.4	89.82
Cc1ccc(-c2nc3ccc(C)cn3c2CNC(=O)c2occc2C)cc1 [Example 15, 3-Methyl-furan-2-carboxylic acid (6-methyl-2-p-tolyl-imidazo[1,2-a]pyridin-3-ylmethyl)-amide]	41.6	0.0	74.5	0.0	80.12
Cc1ccc(-c2nc3ccc(C)cn3c2CNC(=O)c2sccc2C)cc1 [Example 16, 3-Methyl-thiophene-2-carboxylic acid (6-methyl-2-p-tolyl-imidazo[1,2-a]pyridin-3-ylmethyl)-amide]	52.9	0.0	95.4	2.2	82.38
Cc1ccc(-c2nc3ccc(C)cn3c2CNC(=O)c2ccnc(Cl)c2)cc1 [Example 17, 2-Chloro-N-(6-methyl-2-p-tolyl-imidazo[1,2-a]pyridin-3-ylmethyl)-isonicotinamide]	24.4	0.0	94.5	0.0	54.40
Cc1ccc(-c2nc3ccc(C)cn3c2CNC(=O)/C=C/c2ccco2)cc1 [Example 80, 3-Furan-2-yl-N-(6-methyl-2-p-tolyl-imidazo[1,2-a]pyridin-3-ylmethyl)-acrylamide]	–	–	88.9	0.0	61.89
Cc1ccc(-c2nc3ccc(C)cn3c2CNC(=O)c2ccsc2)cc1 [Example 82, Thiophene-3-carboxylic acid (6-methyl-2-p-tolyl-imidazo[1,2-a]pyridin-3-ylmethyl)-amide]	–	–	98.7	33.0	61.93
Cc1ccc(-c2nc3ccc(C)cn3c2CNC(=O)c2cc(C)n(C3CC3)c2C)cc1 [Example 84, 1-Cyclopropyl-2,5-dimethyl-1H-pyrrole-3-carboxylic acid (6-methyl-2-p-tolyl-imidazo[1,2-a]pyridin-3-ylmethyl)-amide]	–	–	–	–	36.32
Cc1ccc(-c2nc3ccc(C)cn3c2CNC(=O)c2cc(F)c(Cl)cc2Cl)cc1 [Example 87, 2,4-Dichloro-5-fluoro-N-(6-methyl-2-p-tolyl-imidazo[1,2-a]pyridin-3-ylmethyl)-benzamide]	–	–	–	–	48.13
Cc1ccc(-c2nc3ccc(C)cn3c2CNC(=O)c2csc([N+](=O)[O-])c2)cc1 [Example 88, 5-Nitro-thiophene-3-carboxylic acid (6-methyl-2-p-tolyl-imidazo[1,2-a]pyridin-3-ylmethyl)-amide]	–	–	96.2	0.0	51.87
Cc1ccc(-c2nc3ccc(C)cn3c2CN(C)C(=O)c2cnccn2)cc1 [Example 96, Pyrazine-2-carboxylic acid methyl-(6-methyl-2-p-tolyl-imidazo[1,2-a]pyridin-3-ylmethyl)-amide]	–	–	99.9	80.5	44.04
Cc1ccc(-c2nc3ccc(C)cn3c2CN(C)C(=O)c2cnoc2C)cc1 [Example 99, 5-Methyl-isoxazole-4-carboxylic acid methyl-(6-methyl-2-p-tolyl-imidazo[1,2-a]pyridin-3-ylmethyl)-amide]	–	–	99.2	52.5	13.33
